Data taken from US20100286038A1, “FORMULATION CONTAINING CYCLIN-DEPENDENT KINASE INHIBITING COMPOUND AND METHOD OF TREATING TUMORS USING THE SAME” (priority 2007, published 2010).
Where two headings read alike, the source gives them in different places.

Description: The contents of the IV bag were infused over a two hour period. […] Each patient was dosed on a 28 day cycle, comprising an infusion once a week for the first three weeks of the cycle on days 1, 8, and 15 of each cycle, with no dose administered in the week following the third dose.
[1] = Table VII, 2 hour IV infusion, 50 mg/m^2, N 10
[2] = Table VII, 2 hour IV infusion, 58 mg/m^2, N 3
[3] = Table VIII cumulative data, Day 1, 2-hour IV infusion, 0.66 mg/m^2, N 1
[4] = Table VIII cumulative data, Day 1, 2-hour IV infusion, 1.32 mg/m^2, N 1
[5] = Table VIII cumulative data, Day 1, 2-hour IV infusion, 1.85 mg/m^2, N 5
[6] = Table VIII cumulative data, Day 1, 2-hour IV infusion, 1.85 mg/m^2, N = 4
[7] = Table VIII cumulative data, Day 1, 2-hour IV infusion, 2.59 mg/m^2, N 3
[8] = Table VIII cumulative data, Day 1, 2-hour IV infusion, 2.59 mg/m^2, N = 2
[9] = Table VIII cumulative data, Day 1, 2-hour IV infusion, 3.63 mg/m^2, N 7
[10] = Table VIII cumulative data, Day 1, 2-hour IV infusion, 3.63 mg/m^2, N = 6
[11] = Table VIII cumulative data, Day 1, 2-hour IV infusion, 3.7 mg/m^2, N 1
[12] = Table VIII cumulative data, Day 1, 2-hour IV infusion, 5.08 mg/m^2, N 3
[13] = Table VIII cumulative data, Day 1, 2-hour IV infusion, 7.11 mg/m^2, N 1
[14] = Table VIII cumulative data, Day 1, 2-hour IV infusion, 7.4 mg/m^2, N 1
[15] = Table VIII cumulative data, Day 1, 2-hour IV infusion, 14.8 mg/m^2, N 1
[16] = Table VIII cumulative data, Day 1, 2-hour IV infusion, 29.6 mg/m^2, N 6
[17] = Table VIII cumulative data, Day 1, 2-hour IV infusion, 29.6 mg/m^2, N = 5
[18] = Table VIII cumulative data, Day 1, 2-hour IV infusion, 41.4 mg/m^2, N 6
[19] = Table VIII cumulative data, Day 1, 2-hour IV infusion, 50 mg/m^2, N 10
[20] = Table VIII cumulative data, Day 1, 2-hour IV infusion, 58 mg/m^2, N 3
[21] = Table VIII cumulative data, Day 1, 2-hour IV infusion, […]^2, N 1

Q: Which “AUC(I) Mean” value [1] does the source give for `CCc1cnn2c(NCc3ccc[n+]([O-])c3)cc(N3CCCC[C@H]3CCO)nc12` [Formula II] here?
A: 4090 ng·h/mL

Q: What about the “CL Mean” value [1] of the same compound?
A: 16.3 L/hr/m^2

Q: What about the “t½ Mean” value [1] of the same compound?
A: 2.90 h

Q: And the “AUC(I) Mean” value [2]?
A: 3300 ng·h/mL

Q: And the “CL Mean” value [2]?
A: 19.7 L/hr/m^2

Q: What about the “t½ Mean” value [2] of the same compound?
A: 3.15 h

Q: What about the “AUC(I) Mean” value [3] of the same compound?
A: 32.1 ng·h/mL

Q: And the “CL Mean” value [3]?
A: 20.6 L/hr/m^2

Q: And the “Cmax Mean” value [3]?
A: 18.6 ng/mL

Q: What about the “Tmax Median” value [3] of the same compound?
A: 2 h

Q: And the “t½ Mean” value [3]?
A: 1.48 h

Q: What about the “Cmax Mean” value [4] of the same compound?
A: 63.8 ng/mL

Q: What about the “Tmax Median” value [4] of the same compound?
A: 2 h

Q: And the “Cmax Mean” value [5]?
A: 91.0 ng/mL

Q: What about the “Tmax Median” value [5] of the same compound?
A: 2 h

Q: What about the “AUC(I) Mean” value [6] of the same compound?
A: 201 ng·h/mL

Q: And the “CL Mean” value [6]?
A: 10.2 L/hr/m^2

Q: What about the “t½ Mean” value [6] of the same compound?
A: 2.29 h

Q: And the “Cmax Mean” value [7]?
A: 124 ng/mL

Q: What about the “Tmax Median” value [7] of the same compound?
A: 1 h

Q: What about the “AUC(I) Mean” value [8] of the same compound?
A: 213 ng·h/mL

Q: What about the “CL Mean” value [8] of the same compound?
A: 12.9 L/hr/m^2

Q: What about the “t½ Mean” value [8] of the same compound?
A: 3.02 h

Q: What about the “Cmax Mean” value [9] of the same compound?
A: 195 ng/mL

Q: What about the “Tmax Median” value [9] of the same compound?
A: 1 h

Q: And the “AUC(I) Mean” value [10]?
A: 446 ng·h/mL

Q: What about the “CL Mean” value [10] of the same compound?
A: 11.3 L/hr/m^2

Q: What about the “t½ Mean” value [10] of the same compound?
A: 2.63 h

Q: What about the “AUC(I) Mean” value [11] of the same compound?
A: 336 ng·h/mL

Q: And the “CL Mean” value [11]?
A: 11.0 L/hr/m^2

Q: What about the “Cmax Mean” value [11] of the same compound?
A: 136 ng/mL

Q: What about the “Tmax Median” value [11] of the same compound?
A: 2 h

Q: And the “t½ Mean” value [11]?
A: 2.75 h

Q: And the “AUC(I) Mean” value [12]?
A: 327 ng·h/mL

Q: What about the “CL Mean” value [12] of the same compound?
A: 15.9 L/hr/m^2

Q: What about the “Cmax Mean” value [12] of the same compound?
A: 173 ng/mL

Q: What about the “Tmax Median” value [12] of the same compound?
A: 2 h

Q: What about the “t½ Mean” value [12] of the same compound?
A: 3.19 h

Q: What about the “AUC(I) Mean” value [13] of the same compound?
A: 588 ng·h/mL

Q: And the “CL Mean” value [13]?
A: 12.1 L/hr/m^2

Q: And the “Cmax Mean” value [13]?
A: 347 ng/mL

Q: And the “Tmax Median” value [13]?
A: 1 h

Q: What about the “t½ Mean” value [13] of the same compound?
A: 3.16 h

Q: And the “AUC(I) Mean” value [14]?
A: 972 ng·h/mL

Q: What about the “CL Mean” value [14] of the same compound?
A: 7.62 L/hr/m^2

Q: What about the “Cmax Mean” value [14] of the same compound?
A: 353 ng/mL

Q: And the “Tmax Median” value [14]?
A: 2 h

Q: What about the “t½ Mean” value [14] of the same compound?
A: 2.86 h

Q: And the “AUC(I) Mean” value [15]?
A: 1050 ng·h/mL

Q: What about the “CL Mean” value [15] of the same compound?
A: 14.1 L/hr/m^2

Q: And the “Cmax Mean” value [15]?
A: 396 ng/mL

Q: What about the “Tmax Median” value [15] of the same compound?
A: 2 h

Q: And the “t½ Mean” value [15]?
A: 2.78 h

Q: What about the “Cmax Mean” value [16] of the same compound?
A: 890 ng/mL

Q: What about the “Tmax Median” value [16] of the same compound?
A: 1 h

Q: And the “AUC(I) Mean” value [17]?
A: 2430 ng·h/mL

Q: And the “CL Mean” value [17]?
A: 14.0 L/hr/m^2

Q: What about the “t½ Mean” value [17] of the same compound?
A: 2.98 h

Q: What about the “AUC(I) Mean” value [18] of the same compound?
A: 2890 ng·h/mL

Q: And the “CL Mean” value [18]?
A: 26.8 L/hr/m^2

Q: What about the “Cmax Mean” value [18] of the same compound?
A: 1300 ng/mL

Q: And the “Tmax Median” value [18]?
A: 2 h

Q: And the “t½ Mean” value [18]?
A: 2.84 h

Q: What about the “AUC(I) Mean” value [19] of the same compound?
A: 4090 ng·h/mL

Q: What about the “CL Mean” value [19] of the same compound?
A: 16.3 L/hr/m^2

Q: And the “Cmax Mean” value [19]?
A: 1820 ng/mL

Q: What about the “Tmax Median” value [19] of the same compound?
A: 1.5 h

Q: What about the “t½ Mean” value [19] of the same compound?
A: 2.90 h

Q: What about the “AUC(I) Mean” value [20] of the same compound?
A: 3300 ng·h/mL

Q: And the “CL Mean” value [20]?
A: 19.7 L/hr/m^2

Q: What about the “Cmax Mean” value [20] of the same compound?
A: 1460 ng/mL

Q: And the “Tmax Median” value [20]?
A: 1 h

Q: What about the “t½ Mean” value [20] of the same compound?
A: 3.15 h

Q: What about the “CL Mean” value [21] of the same compound?
A: 13.1 L/hr/m^2

Q: What about the “Tmax Median” value [21] of the same compound?
A: 1 h

Q: What about the “t½ Mean” value [21] of the same compound?
A: 2.01 h

Q: What about the clearance versus dose (dosages of from […]^2 to 41.4 mg/m^2) of the same compound?
A: clearance is dosage independent

Q: What about the “exposure (AUC) versus dose” value (dosages of from […]^2 to 41.4 mg/m^2, day 1 and day 15) of the same compound?
A: dose-proportional increases in exposure

Q: And the AUC (two hour infusion, 3.7 mg/M^2)?
A: about 336 ng hr/mL

Q: What about the Cmax (two hour infusion, 3.7 mg/M^2) of the same compound?
A: about 136 ng/ml

Q: What about the t1/2 (two hour infusion, 3.7 mg/M^2) of the same compound?
A: about 2.75 hours

Q: What about the Cmax (two hour infusion, 7.4 mg/M^2) of the same compound?
A: about 353 ng/ml

Q: And the t1/2 (two hour infusion, 7.4 mg/M^2)?
A: about 2.86 hours

Q: What about the Cmax (two hour infusion, 14.8 mg/M^2) of the same compound?
A: about 396 ng/ml

Q: And the t1/2 (two hour infusion, 14.8 mg/M^2)?
A: about 2.78 hours

Q: And the t1/2 (two hour infusion, 41.4 mg/M^2)?
A: about 2.8 hours

Q: And the Cmax (two hour infusion, 50 mg/M^2)?
A: about 1820 ng/ml

Q: And the t1/2 (two hour infusion, 50 mg/M^2)?
A: about 2.9 hours

Q: And the Cmax (two hour infusion, 58 mg/M^2)?
A: about 1460 ng/ml

Q: What about the t1/2 (two hour infusion, 58 mg/M^2) of the same compound?
A: about 3.2 hours
